target: T1, human URAT1 (Homo sapiens, UniProt Q96S37); experiment: Test for inhibition of uric acid transport using human URAT1-expressing cells;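 also: three stars up to 0.2 µM two stars 0.2-2 µM one star 2-20 µM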; format: cell-based; details: HEK 293 cells expressing human URAT1; 14C-labeled uric acid 25 μM; uptake 37° C. for 5 min
T1 construct: Full-length cDNA of human URAT1 (hURAT1)
T1 sequence (Q96S37 1-553): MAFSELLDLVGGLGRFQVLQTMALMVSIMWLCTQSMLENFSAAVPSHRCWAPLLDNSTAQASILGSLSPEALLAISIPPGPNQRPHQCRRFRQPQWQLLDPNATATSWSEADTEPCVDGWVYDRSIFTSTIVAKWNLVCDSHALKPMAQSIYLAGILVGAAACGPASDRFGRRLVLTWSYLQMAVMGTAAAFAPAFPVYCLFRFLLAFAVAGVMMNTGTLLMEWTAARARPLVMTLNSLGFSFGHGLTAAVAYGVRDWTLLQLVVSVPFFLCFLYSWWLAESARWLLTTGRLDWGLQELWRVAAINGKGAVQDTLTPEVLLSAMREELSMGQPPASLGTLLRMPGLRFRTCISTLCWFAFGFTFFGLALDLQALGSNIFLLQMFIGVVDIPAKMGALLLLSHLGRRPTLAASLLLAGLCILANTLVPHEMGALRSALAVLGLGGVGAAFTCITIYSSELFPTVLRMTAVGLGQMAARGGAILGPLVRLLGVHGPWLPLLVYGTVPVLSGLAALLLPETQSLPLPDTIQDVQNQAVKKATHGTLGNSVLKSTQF
Procedure, shortened: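 IC50 values reflect inhibition of ¹⁴C-uric acid uptake (25 μM final, 5 min, 37 °C) by compound. Cells were HEK293 stably expressing full-length human URAT1, preincubated in Na-gluconate-substituted HBSS. Radioactivity in lysates was expressed relative to DMSO control as 100%.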

Structure (SMILES) | Inhibitory Activity (IC50 of uric acid transport inhibition)
CS(=O)(=O)NC(=O)c1c(C2CC2)nc(-c2cccnc2)n1Cc1cccc2ccsc12 [Compound A117, 1-(benzo[b]thiophen-7-ylmethyl)-4-cyclopropyl-N-(methylsulfonyl)-2-(pyridin-3-yl)-1H-imidazole-5-carboxamide] | * *
O=C(NS(=O)(=O)C1CC1)c1c(C2CC2)nc(-c2cccnc2)n1Cc1cccc2ccsc12 [Compound A118, 1-(benzo[b]thiophen-7-ylmethyl)-4-cyclopropyl-N-(cyclopropylsulfonyl)-2-(pyridin-3-yl)-1H-imidazole-5-carboxamide] | * *
Cc1nc(-c2cncc(Oc3ccccc3)c2)n(Cc2cccc3ccccc23)c1C(=O)O [Compound A130, 4-methyl-1-(naphthalen-1-ylmethyl)-2-(5-phenoxypyridin-3-yl)-1H-imidazole-5-carboxylic acid] | * *
Cc1nc(-c2cncc(Cl)c2)n(Cc2csc3ccccc23)c1C(=O)O [Compound A132, 1-(benzo[b]thiophen-3-ylmethyl)-2-(5-chloropyridin-3-yl)-4-methyl-1H-imidazole-5-carboxylic acid] | * *
Cc1nc(-c2cncc(F)c2)n(Cc2csc3ccccc23)c1C(=O)O [Compound A133, 1-(benzo[b]thiophen-3-ylmethyl)-2-(5-fluoropyridin-3-yl)-4-methyl-1H-imidazole-5-carboxylic acid] | * *
O=C(O)c1c(C(F)(F)F)nc(-c2cncc(F)c2)n1Cc1cc(Cl)ccc1Cl [Compound A136, 1-(2,5-dichlorobenzyl)-2-(5-fluoropyridin-3-yl)-4-(trifluoromethyl)-1H-imidazole-5-carboxylic acid] | * * *
Cc1nc(-c2cncc(C(F)(F)F)c2)n(Cc2cccc3ccccc23)c1C(=O)O [Compound A138, 4-methyl-1-(naphthalen-1-ylmethyl)-2-(5-(trifluoromethyl)pyridin-3-yl)-1H-imidazole-5-carboxylic acid] | * *
O=C(O)c1c(C(F)(F)F)nc(-c2cncc(C(F)(F)F)c2)n1Cc1cc(Cl)ccc1Cl [Compound A140, 1-(2,5-dichlorobenzyl)-4-(trifluoromethyl)-2-(5-(trifluoromethyl)pyridin-3-yl)-1H-imidazole-5-carboxylic acid] | * * *
Cc1nc(-c2cncc(F)c2)n(Cc2csc3cccc(Cl)c23)c1C(=O)O [Compound A141, 1-((4-chlorobenzo[b]thiophen-3-yl)methyl)-2-(5-fluoropyridin-3-yl)-4-methyl-1H-imidazole-5-carboxylic acid] | * *
Cc1nc(-c2cncc(Cl)c2)n(Cc2csc3cccc(Cl)c23)c1C(=O)O [Compound A142, 1-((4-chlorobenzo[b]thiophen-3-yl)methyl)-2-(5-chloropyridin-3-yl)-4-methyl-1H-imidazole-5-carboxylic acid] | * * *
Cc1nc(-c2cncc(C(F)(F)F)c2)n(Cc2csc3cccc(Cl)c23)c1C(=O)O [Compound A143, 1-((4-chlorobenzo[b]thiophen-3-yl)methyl)-4-methyl-2-(5-(trifluoromethyl)pyridin-3-yl)-1H-imidazole-5-carboxylic acid] | * * *
CC(C)c1nc(-c2cncc(Cl)c2)n(Cc2cccc3ccccc23)c1C(=O)O [Compound A144, 2-(5-chloropyridin-3-yl)-4-isopropyl-1-(naphthalen-1-ylmethyl)-1H-imidazole-5-carboxylic acid] | * * *
O=C(O)c1c(C2CC2)nc(-c2cncc(Cl)c2)n1Cc1cccc2ccccc12 [Compound A145, 2-(5-chloropyridin-3-yl)-4-cyclopropyl-1-(naphthalen-1-ylmethyl)-1H-imidazole-5-carboxylic acid] | * * *
CC(C)c1nc(-c2cncc(Cl)c2)n(Cc2cc(Cl)ccc2Cl)c1C(=O)O [Compound A146, 2-(5-chloropyridin-3-yl)-1-(2,5-dichlorobenzyl)-4-isopropyl-1H-imidazole-5-carboxylic acid] | * * *
CCc1nc(-c2cncc(F)c2)n(Cc2cccc3ccccc23)c1C(=O)O [Compound A148, 4-ethyl-2-(5-fluoropyridin-3-yl)-1-(naphthalen-1-ylmethyl)-1H-imidazole-5-carboxylic acid] | * *
CCc1nc(-c2cncc(Cl)c2)n(Cc2cccc3ccccc23)c1C(=O)O [Compound A149, 2-(5-chloropyridin-3-yl)-4-ethyl-1-(naphthalen-1-ylmethyl)-1H-imidazole-5-carboxylic acid] | * * *
CCc1nc(-c2cncc(F)c2)n(Cc2cc(Cl)ccc2Cl)c1C(=O)O [Compound A150, 1-(2,5-dichlorobenzyl)-4-ethyl-2-(5-fluoropyridin-3-yl)-1H-imidazole-5-carboxylic acid] | * * *
CCc1nc(-c2cncc(Cl)c2)n(Cc2cc(Cl)ccc2Cl)c1C(=O)O [Compound A151, 2-(5-chloropyridin-3-yl)-1-(2,5-dichlorobenzyl)-4-ethyl-1H-imidazole-5-carboxylic acid] | * * *
CC(C)c1nc(-c2cncc(F)c2)n(Cc2cccc3ccccc23)c1C(=O)O [Compound A152, 2-(5-fluoropyridin-3-yl)-4-isopropyl-1-(naphthalen-1-ylmethyl)-1H-imidazole-5-carboxylic acid] | * *
O=C(O)c1c(C2CC2)nc(-c2cncc(F)c2)n1Cc1cccc2ccccc12 [Compound A153, 4-cyclopropyl-2-(5-fluoropyridin-3-yl)-1-(naphthalen-1-ylmethyl)-1H-imidazole-5-carboxylic acid] | * *
CC(C)c1nc(-c2cncc(F)c2)n(Cc2cc(Cl)ccc2Cl)c1C(=O)O [Compound A154, 1-(2,5-dichlorobenzyl)-2-(5-fluoropyridin-3-yl)-4-isopropyl-1H-imidazole-5-carboxylic acid] | * * *
O=C(O)c1c(C2CC2)nc(-c2cncc(F)c2)n1Cc1cc(Cl)ccc1Cl [Compound A155, 4-cyclopropyl-1-(2,5-dichlorobenzyl)-2-(5-fluoropyridin-3-yl)-1H-imidazole-5-carboxylic acid] | * * *
COc1cncc(-c2nc(C)c(C(=O)O)n2Cc2cc(Cl)ccc2Cl)c1 [Compound A157, 1-(2,5-dichlorobenzyl)-2-(5-methoxypyridin-3-yl)-4-methyl-1H-imidazole-5-carboxylic acid] | * * *
Cc1nc(-c2cncc(C#N)c2)n(Cc2cc(Cl)ccc2Cl)c1C(=O)O [Compound A158, 2-(5-cyanopyridin-3-yl)-1-(2,5-dichlorobenzyl)-4-methyl-1H-imidazole-5-carboxylic acid] | * *
Cc1ccc(-c2nc(C)c(C(=O)O)n2Cc2cc(Cl)ccc2Cl)cn1 [Compound A159, 1-(2,5-dichlorobenzyl)-4-methyl-2-(6-methylpyridin-3-yl)-1H-imidazole-5-carboxylic acid] | * *
Cc1nc(-c2cccnc2F)n(Cc2cc(Cl)ccc2Cl)c1C(=O)O [Compound A160, 1-(2,5-dichlorobenzyl)-2-(2-fluoropyridin-3-yl)-4-methyl-1H-imidazole-5-carboxylic acid] | * *
COc1ccc(-c2nc(C)c(C(=O)O)n2Cc2cc(Cl)ccc2Cl)cn1 [Compound A161, 1-(2,5-dichlorobenzyl)-2-(6-methoxypyridin-3-yl)-4-methyl-1H-imidazole-5-carboxylic acid] | * *

same assay, conditions: HEK 293 cells expressing human URAT1; 14C-labeled uric acid 25 μM; uptake 37° C. for 5 min; read-out: Inhibitory Activity (IC50 of uric acid transport inhibition)

Structure (SMILES) | IC50
Cc1nc(-c2cccnc2)n(Cc2cc(Cl)ccc2Cl)c1C(=O)NS(=O)(=O)C1CC1 [Compound A112] | 2 to 20 µM
Cc1nc(-c2cccnc2)n(Cc2cccc3ccsc23)c1C(=O)NS(C)(=O)=O [Compound A115] | 2 to 20 µM
Cc1nc(-c2cccnc2)n(Cc2cccc3ccsc23)c1C(=O)NS(=O)(=O)C1CC1 [Compound A116] | 2 to 20 µM
COc1cncc(-c2nc(C)c(C(=O)O)n2Cc2cccc3ccccc23)c1 [Compound A120] | 2 to 20 µM
Cc1cncc(-c2nc(C)c(C(=O)O)n2Cc2cccc3ccccc23)c1 [Compound A124] | 2 to 20 µM
COc1ncccc1-c1nc(C)c(C(=O)O)n1Cc1cccc2ccccc12 [Compound A125] | 2 to 20 µM
COc1ccccc1Oc1cncc(-c2nc(C)c(C(=O)O)n2Cc2cccc3ccccc23)c1 [Compound A131] | 2 to 20 µM

From US9637469B2, “Pyridine derivative” (Teijin Pharma Limited, priority 2012, dated 2017)
